Like-named read-outs stand apart in the source and are kept apart here.
Assays:
HSD-1 [1] = molecular target: T1, HSD-1 (Homo sapiens, UniProt P28845); experiment: Surface plasmon resonance binding kinetics in presence of NADPH (residence time); conditions: 300 μM NADPH, reciprocal of the dissociation rate constant
Description: Pseudo-irreversible HSD-1 inhibitors can be identified via in vitro enzyme kinetics evaluation, in which they are expected to show longer enzyme residence times compared to other HSD-1 inhibitors. Surface plasmon resonance (SPR) is the resonant oscillation of conduction electrons at the interface between negative and positive permittivity material stimulated by incident light. When a protein is bound to a surface, SPR can be used to detect ligand binding to the protein. […] Association and dissociation of test compounds were monitored in the presence of 300 µM NADPH throughout the experiment.

[2] = test system: urine tetrahydrocortisone; conditions: healthy adults and elderly subjects; 7-21 days; cited from earlier work
[3] = cited from earlier work; for plasma exposures after single doses, dose proportionality: low single doses; for estimated target capacity / capacity of saturable distribution: population pharmacokinetics model
[4] = cynomolgus monkey liver; cited from earlier work
[5] = INCB-13739 diabetes; R05093151 non-alcoholic fatty liver disease; AZD4017 impaired wound healing; ABT-384 dementia; BI-187004 diabetes; cited from earlier work
brain HSD-1 = molecular target: T2, brain HSD-1 (Homo sapiens, UniProt P28845); conditions: healthy adults; cited from earlier work
T2 construct: Brain HSD-1 occupancy following a single dose of SPI-62 3 mg; from tissue; host or cells: brain in vivo

HSD-1 [6] = molecular target: T1, HSD-1; experiment: Target-mediated drug disposition (TMDD) population PK / PK-PD model; conditions: in vivo
adipose HSD-1 = molecular target: T3, adipose HSD-1 (Homo sapiens, UniProt P28845); conditions: in vivo; cited from earlier work
T3 construct: infused continuously into subcutaneous abdominal adipose tissue via microdialysis catheters; from tissue; host or cells: human subcutaneous abdominal adipose tissue, in vivo

skin HSD-1 = skin HSD-1 (Homo sapiens, UniProt P28845); conditions: in vivo; cited from earlier work
liver HSD-1 = liver HSD-1 (Homo sapiens, UniProt P28845); conditions: same subjects, multiple doses; cited from earlier work
mouse = conditions: cited from earlier work
rabbit = conditions: cited from earlier work
[7] = read-out: Residence Time (converted)

T1 sequence (P28845 whole entry): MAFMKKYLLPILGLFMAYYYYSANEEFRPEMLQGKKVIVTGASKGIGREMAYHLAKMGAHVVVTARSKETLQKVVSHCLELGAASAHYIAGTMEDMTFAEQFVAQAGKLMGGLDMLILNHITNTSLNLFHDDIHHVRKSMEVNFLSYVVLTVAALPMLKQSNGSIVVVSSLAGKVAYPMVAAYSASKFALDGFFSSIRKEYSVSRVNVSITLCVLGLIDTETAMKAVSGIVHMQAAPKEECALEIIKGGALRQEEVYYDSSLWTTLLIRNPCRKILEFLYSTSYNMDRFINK
T3 sequence (P28845 whole entry, the tested form may be a part): as the sequence (P28845 whole entry) above
Sequence of skin HSD-1 (P28845 whole entry): as above
T2 sequence (P28845 whole entry): as above
Sequence of liver HSD-1 (P28845 whole entry): as above

Structure (SMILES): CC(C)(C(=O)N[C@H]1C2CC3CC1C[C@@](C(N)=O)(C3)C2)N1CCN(c2ccc(C(F)(F)F)cn2)CC1 [ABT-384, (1s,3R,4r,5S,7s)-4-(2-methyl-2-(4-(5-(trifluoromethyl)pyridin-2-yl)piperazin-1-yl)propanamido)adamantane-1-carboxamide]
- residence time (HSD-1 [1]; [7]): 43.5 min
- liver cortisone levels (urine tetrahydrocortisone) [2]: increased substantially
- plasma levels after multiple doses / steady state, dose proportionality ([3]; in vivo): approximately dose-proportional
- plasma exposures after single doses, dose proportionality [3]: substantial non-linearity
- estimated target capacity / capacity of saturable distribution [3]: ~1 mg
- retention in liver [4]: at least 77 days
- clinical trial efficacy [5]: lack of efficacy
- time after cessation of daily administration up to which complete brain HSD-1 inhibition was observed (brain HSD-1): up to 40 hours
- Kd lower than the Ki (HSD-1 [6]): approximately 60 fold

Structure (SMILES): CC(C)[C@]1(C)SC(N[C@H]2C[C@@H]3CC[C@H]2C3)=NC1=O [AMG-221, (S,E)-2-(((1S,2S,4R)-bicyclo[2.2.1]heptan-2-yl)imino)-5-isopropyl-5-methylthiazolidin-4-one]
- plasma exposures after single doses, dose proportionality [3]: nonlinearity of pharmacokinetics

Structure (SMILES): CCCSc1nc(N2CCC[C@@H](CC(=O)O)C2)ccc1C(=O)NC1CCCCC1 [AZD4017, (S)-2-(1-(5-(cyclohexylcarbamoyl)-6-(propylthio)pyridin-2-yl)piperidin-3-yl)acetic acid]
- adipose HSD-1 inhibition after a single dose (adipose HSD-1): demonstrated adipose HSD-1 inhibition
- adipose HSD-1 inhibition after repeated dosing (adipose HSD-1): no sustained inhibitory effect
- tachyphylaxis of human adipose HSD-1 inhibition with multiple dosing (adipose HSD-1): showed tachyphylaxis
- skin HSD-1 inhibition after multiple doses (skin HSD-1): no skin HSD-1 inhibition
- liver HSD-1 inhibition (liver HSD-1): maximal

Structure (SMILES): CC(C)(C)c1c(C(=O)NC2C3CC4CC(C3)CC2C4)cnn1-c1ccc(C(=O)O)cc1 (centres unmarked) [AZD8329, 4-(4-(((1r,3r,5r,7r)-adamantan-2-yl)carbamoyl)-5-(tert-butyl)-1H-pyrazol-1-yl)benzoic acid]
- residence time (HSD-1 [1]; [7]): 3.45 min
- adipose HSD-1 inhibition after repeated dosing (adipose HSD-1): lost
- tachyphylaxis of human adipose HSD-1 inhibition with multiple dosing (adipose HSD-1): showed tachyphylaxis

Structure (SMILES): N#Cc1ccc2c(c1)[C@H]1CCCN(C(=O)c3ccc4nc[nH]c4c3)[C@H]1C2 [BI-187004, (4aR,9aS)-1-(1H-benzo[d]imidazole-6-carbonyl)-2,3,4,4a,9,9a-hexahydro-1H-indeno[2,1-b]pyridine-6-carbonitrile]
- plasma exposures after single doses, dose proportionality [3]: substantially below
- clinical trial efficacy [5]: lack of efficacy

Structure (SMILES): O=C(CC1(c2ccccc2)C2CC3CC1CC(C2)C3O)N1CC(O)C1 (centres unmarked) [BMS-816336]
- residence time (HSD-1 [1]): 2.15 min

Structure (SMILES): CC(C)(O)c1cccn2c(C3(c4ccc(Cl)cc4)CC3)nnc12 [BMS-823778, 2-(3-(1-(4-chlorophenyl)cyclopropyl)-[1,2,4]triazolo[4,3-a]pyridin-8-yl)propan-2-ol]
- residence time (HSD-1 [1]; [7]): 2.03 min
- plasma levels after a single 0.1 or 0.5 mg dose ([3]; in vivo): not detected
- plasma levels after multiple doses / steady state, dose proportionality ([3]; in vivo): dose proportional
- plasma exposures after single doses, dose proportionality [3]: less than dose proportional

Structure (SMILES): CC1(C)[C@@H](OC(=O)CCC(=O)O)CC[C@]2(C)[C@H]3C(=O)C=C4[C@@H]5C[C@@](C)(C(=O)O)CC[C@]5(C)CC[C@@]4(C)[C@]3(C)CC[C@@H]12 [Carbenoxolone]
- GC-induced wound healing impairment (mouse): prevented

Structure (SMILES): CC1(C)[C@@H](O[C@H]2O[C@H](C(=O)O)[C@@H](O)[C@H](O)[C@H]2O[C@@H]2O[C@H](C(=O)O)[C@@H](O)[C@H](O)[C@H]2O)CC[C@]2(C)[C@H]3C(=O)C=C4[C@@H]5C[C@@](C)(C(=O)O)CC[C@]5(C)CC[C@@]4(C)[C@]3(C)CC[C@@H]12 [Glycyrrhizin]
- intraocular pressure increase associated with intravitreal triamcinolone (rabbit): partially prevented

Structure (SMILES): CNC(=O)c1ccc(-c2ccc(C3(C(=O)N4CC[C@@]5(C4)OC(=O)c4ccccc45)CC3)cc2)cn1 [INCB-13739]
- residence time (HSD-1 [1]): 4.53 min
- clinical trial efficacy [5]: support efficacy

Structure (SMILES): CC1CN(CC(=O)NC2C3CC4CC2CC(C(N)=O)(C4)C3)S(=O)(=O)N(c2c(Cl)cc(C(F)(F)F)cc2Cl)C1 [KR-67607, (1s,3R,4s,5S,7s)-4-(2-(6-(2,6-dichloro-4-(trifluoromethyl)phenyl)-4-methyl-1,1-dioxido-1,2,6-thiadiazinan-2-yl)acetamido)adamantane-1-carboxamide]
- residence time (HSD-1 [1]; [7]): 8.63 min

Structure (SMILES): CCS(=O)(=O)CCCC12CCC(c3nnc(-c4ccccc4C(F)(F)F)n3C)(CC1)CC2 [MK-0736, 3-(4-(3-(ethylsulfonyl)propyl)bicyclo[2.2.2]octan-1-yl)-4-methyl-5-(2-(trifluoromethyl)phenyl)-4H-1,2,4-triazole]
- plasma exposures after single doses, dose proportionality [3]: non-linear, saturable distribution PK

Structure (SMILES): F[C@H]1C[C@@](c2ccc(Cl)cc2)(c2nnc(C3CC3)n2C2CC2)C1 [MK-0916, 3-((1s,3s)-1-(4-chlorophenyl)-3-fluorocyclobutyl)-4,5-dicyclopropyl-4H-1,2,4-triazole]
- residence time (HSD-1 [1]; [7]): 3.25 min
- plasma levels after multiple doses / steady state, dose proportionality ([3]; in vivo): approximately dose-proportional
- plasma exposures after single doses, dose proportionality [3]: substantial non-linearity
- estimated target capacity / capacity of saturable distribution [3]: ~3 mg

Structure (SMILES): N#Cc1ccc(-c2ccc(S(=O)(=O)Nc3cccc(N)n3)cc2)cc1 [PF915275]
- residence time (HSD-1 [1]): 5.07 min
- GC-induced wound healing impairment (mouse): prevented

Structure (SMILES): O=C(c1csc(-c2cn[nH]c2)c1)N1[C@@H]2CC[C@H]1C[C@](O)(c1ncccn1)C2 [UE-2343, (5-(1H-pyrazol-4-yl)thiophen-3-yl)((1R,3r,5S)-3-hydroxy-3-(pyrimidin-2-yl)-8-azabicyclo[3.2.1]octan-8-yl)methanone]
- residence time (HSD-1 [1]): 9.05 min
- plasma levels after single doses of 2 and 5 mg ([3]; in vivo): below the level of quantification
- plasma exposures after single doses, dose proportionality [3]: greater than dose-proportional
- mean maximum plasma concentration ([3]; single 10 mg dose): 40.4 ng/mL
